From patent US20240209047A1, “GROWTH FACTOR CONJUGATES” (priority 2021, published 2024)
“Also recorded” adds a separate entry of the source.

What was measured:
[1] = test system: full thickness splinted wounds (8 mm diameter) of db/db mice; assay: Wound closure of full thickness splinted dermal wounds in diabetic mice; assay type: in vivo, mouse; settings: for percentage wound closure: treated 6 times over 11 days (every other day)
From the text: In vivo studies: All procedures adhered to the recommendations in the Guide for the Care and Use of Laboratory Animals of the National Institutes of Health. The protocol for this experiment was approved by the Institutional Animal Care and Use Committee of University of California, Davis.
Creating of full thickness splinted dermal wounds: Genetically diabetic 12 week old male mice (db/db; BKS.Cg-m+/+Leprdb; Jackson Laboratories, Bar Harbor, ME) were used for this study. […] 8 mm Full thickness wounds were created on the dorsal surface of db/db mice as described previously (Park S. A. et al., 2014).
Mice in the sEGF group received native EGF (300 ng) dissolved in PEG immediately after wounding and twice daily until day 10. The NoTx group remained without any treatment through the study period. All wounds were dressed using a sterile coverslip and a semi-occlusive bandage.
(§1) Clinical and histological analyses: All analyses were performed as described previously (Park S. A. et al., 2014). Briefly, wounds were clinically evaluated and imaged daily, and the wound area was measured using image analysis software, and percentage wound closure was calculated. Mice were humanely euthanized on day 11 and the entire wound bed was harvested. Histologic analyses was performed by a board-certified veterinary pathologist.

[2] = test system: wound bed from a db/db mouse; assay: Histopathological evaluation of wound bed of db/db mice after 11 days; assay type: in vivo
From the text: FIG. 5A-C. Histopathological evaluations of a wound bed from a db/db mouse treated with/without crosslinked EGF over 11 days upon wounding. Scale Bars=500 μm. (A) Measurement of epithelial gap (blue line) and reepithelialization (red line). The epithelial gap was defined as the distance between the advancing edges of keratinocyte migration measured in millimeters. Length of reepithelialization was defined as the length of the layer of proliferating keratinocytes covering the wound area. This value was obtained by measuring s the distance between the free edge of the keratinocyte layer and the base where the cells were still associated with native, non-affected dermal tissue. The final value was the sum of distance in millimeters of both sides. H&E staining. Graphs indicate the mean f standard deviation of epithelial gap/re-epithelialized measure on surface wounds after 11 days with or without treatments. (B) Measurement of the fibrovascular dermal proliferation in the wound bed. Using picrosirius red stain under polarized light the bright collagen fibers of the wound bed are highlighted and automatically measured by the software. The final data is expressed as a percentage of outlined wound area comprised of collagen. Graphs indicate the mean f standard deviation of % collagen measured in surface wounds after 11 days with or without treatments. […] The inflammatory response was assessed using a semi-quantitative scoring system ranging from 0 to 4 where 0 indicates no inflammation, 1 indicates 0-25% of the wound area affected, 2 indicates 25-50% of the wound area affected, 3 indicates 50-75% of the wound area affected, and 4 indicates 75% of the wound area affected. H&E staining. Graphs indicate the mean±standard deviation of inflammation score. *p<0.05 compared with qEGF-6x, #p<0.05 compared with NoTx (t-test/Mann-Whitney rank sum test).
FIG. 11. Percentage distribution of inflammatory cells in wound bed of diabetic mice at the end of 11 days. […] Results are mean f standard deviation of the ratio of positive cells to total number of cells in the wound bed.
as §1

HaCaT cells [3] = assay: HaCaT proliferation (MTT) on surfaces with covalently immobilized EGF; assay type: cell-based, human
Procedure: Human 433 immortalized kertinocytes (HaCaT) cells were cultured in growth medium containing 1% (v/v) serum (FBS). The proliferation rates are expressed as % control when cultured on surfaces [trimethoxy(propyl)silane (TPS) or 3-mercaptopropyl trimethoxysilane (3-MPTS)] immobilized with EGF. As positive control, cells were also cultured in the growth medium containing 10% 437 (v/v) FBS. ***p<0.001, one-way ANOVA followed by Dunnett's multiple comparison test compared with control cultures (cells cultured in media with 1% serum).
In vitro surface modification: An in vitro model of the wound surface was generated by silanizing glass coverslips with either trimethoxy(propyl)silane (TPS) or 3-mercaptopropyl trimethoxysilane (3-MPTS). Disulfide bonds (if any) on the surface of the silanated coverslips were reduced using 10 μM tris(2-carboxyethyl)phosphine (TCEP) for 10 min to generate an abundance of —SH bonds. These exposed —SH groups were used to covalently immobilize EGF.
Measuring bioactivity in vitro: Human immortalized kertinocytes (HaCaT cells) were plated on unmodified glass surfaces, or on surfaces covalently immobilized with EGF, or on surfaced with quenched EGF, in Dulbeccos' modified Eagle's medium (DMEM) supplemented with 1% fetal bovine serum and proliferation was determined after 5 days using the MTT assay (Raghunathan et al., 2013). […]

[4] = Persistence of EGF in the wound bed by ELISA specific to anti-human EGF; assay type: in vivo, mouse; settings: for persistence of EGF in the wound bed: mass per mm^2 of tissue, in vivo
Procedure: Detection of crosslinked EGF on dermal wounds: Persistence of CxEGF, qEGF and soluble EGF in the wound bed was determined using ELISA specific to anti-human EGF. Mice were euthanized at each time point and the wound bed was harvested. The tissue was digested using 7.5 Units/ml collagenase in the presence of 1 μM dithiothreitol (DTT) over 2 h at 37° C. This was centrifuged at 14000 RPM and the supernatant following which ELISA was performed. Specificity of the ELISA was verified using mouse recombinant EGF. Amount of EGF (mg) measured on the wound bed was expressed per surface area (mm^2) of the tissue.
The feasibility to tether sulfo-SMCC modified nanospheres to graft tissue was first evaluated (FIG. 9). Full thickness splinted wounds (8 mm in diameter) were created on heterozygous (db+/−;BKS.Cg-m+/+Leprdb) mouse as described above. Wound surfaces were treated with a reducing agent (tris(2-carboxyethyl)phosphine; TCEP) to break the disulfide bonds. The crosslinkers and reducing agents were used at non-toxic doses (FIG. 10). […] Immediately after the treatment, wounds were covered with a semi-occlusive dressing to minimize scab formation (Park Shin Ae et al., 2014). Wound beds were harvested at various time points and the presence of EGF attached on the surfaces was determined by ELISA (FIG. 3B). […] A gradual decrease in the amount of surface immobilized EGF was observed after 2 days. […] We note that the number of disulfide bonds available for anchoring CxEGF is difficult to ascertain in vivo and may thus contribute to the partial surface coverage. Secondary validation of the linkage chemistry was done using an in vitro model of the surface chemistry using (3 mercaptopropyl)trimethoxysilane (MPTS) or trimethoxy(propyl)silane (TPS) and maleimide by a reduction in contact angle and increased thickness of deposition (FIG. 3D). The mercapto group on the MPTS simulated sulfhydryl groups present on a native wound bed, and TPS was devoid of any functional group simulating a passivated wound surface.

deep-partial burn wounds = settings: cited from earlier work
HaCaT cells [5] = assay: HaCaT proliferation with soluble EGF; assay type: cell-based, human; settings: 1% FBS, 0-80 ng/ml soluble EGF
Procedure: FIG. 8. In vitro proliferation rates of spontaneously immortalized human keratinocytes (HaCaT cells), cultured in growth medium containing 1% (v/v) serum (FBS), treated with 0-80 ng/ml soluble EGF. Results are mean f standard deviation, ***p<0.001 (ANOVA followed by Dunnett's multiple comparison test) compared with control cultures.
EGF is a key growth factor involved in triggering wound re-epithelialization, one of the critical early events in wound closure, whose prolonged exposure is required for eliciting a cellular response (Bennett N. T. and Schultz G. S., 1993, Bennett N. T. and Schultz G. S., 1993, 171 Gipson and Inatomi, 1995, Jost et al., 2000). […] A full thickness splinted wound (8 mm in diameter) was created on each heterozygous (db+/−; BKS.Cg-m+/+ Leprdb) mouse as described previously (Park Shin Ae et al., 2014). […] Functional bioactivity of EGF was determined in vitro using spontaneously transformed keratinocytes (HaCaT cell line) from histologically normal skin (FIG. 8). As a possible contributor to the lack of significant positive effect, we observed a rapid loss of recombinant human EGF from the surface of wounds within 1 h of topical administration (FIG. 2B). […]

[6] = 6x, every other day over 11 days
[7] = ratio of positive cells to total cells, after 11 days
[8] = 30 ng crosslinked onto TCEP treated wound surface

## qEGF: s-SMCC conjugated EGF with its maleimide group quenched with β-mercaptoethanol (NSDSECPLSHDGYCLHDGVCMYIEALDKYACNCVVGYIGERCQYRDLKWWELR; Epidermal growth factor sulfo-SMCC, maleimide quenched with β-mercaptoethanol; UniProt P01133 971-1023, looked up) [reference compound]
[1]; [6]
  wound closure rate (decrease in wound radius per day): ineffective in altering wound healing rates
[1]; db/db mice
  percentage wound closure: NoTx group had a significantly higher percentage wound closure compared to the qEGF group

## CxEGF: Human recombinant EGF conjugated with sulfo-SMCC, covalently crosslinked onto TCEP-reduced wound surface
[1]; 1x, immobilization only once immediately after wounding
  wound closure rate (reduction of wound radii): no significant effects on wound closure rate
[1]; 3x, every 4 days
  wound closure rate (decrease in wound radius per day): significantly higher wound closure rate
[1]; [6]
  wound closure rate (decrease in wound radius per day): significantly higher wound closure rate
[1]; db/db mice
  percentage wound closure: significant acceleration of wound closure; also recorded: significantly improved wound healing
[2]; 6x, day 11, H&E
  inflammation (semi-quantitative score 0 to 4): reduction in inflammation
[2]; 6x, day 11, H&E, versus qEGF, no treatment or soluble EGF
  epithelial gap: dramatic decreases in epithelial gap
[2]; 6x, day 11, H&E, listed as Cross linked EGF
  inflammation (semi-quantitative score 0 to 4): elicited less inflammation
[2]; 6x, day 11, picrosirius red
  collagen content: comparable collagen content
[2]; [7]
  F-480 positive macrophages in wound bed: No statistically significant differences
  GR1 positive granulocytes in wound bed: No statistically significant differences
HaCaT cells [3]; HaCaT, 1% FBS, TPS or 3-MPTS surfaces immobilized with EGF
  proliferation rate (% control): strongly promotes proliferation
HaCaT cells [3]; immobilized on MPTS or TPS coated glass, MTT, after 3 days of treatment
  increase in cell proliferation: over 2 fold
[4]; [8]
  apparent surface coverage: 2 pg/mm^2
  sustained surface immobilization of the growth factor: 2 days
[4]; ELISA
  persistence of EGF in the wound bed: increases persistence of EGF on the wound surface
[4]; equivalent of the pg/mm^2 value
  apparent surface coverage (equivalent): 1.99×10^8 molecules/mm^2
[4]; theoretical monolayer 213.6 pg/mm^2
  surface coverage as fraction of a theoretical monolayer of EGF: 1/100

## aFGF: topical recombinant human acidic fibroblast growth factor
deep-partial burn wounds; deep-partial burn wounds, versus placebo
  fully healed rate: 53.85%
deep-partial burn wounds; placebo 18.92±0.49, p=0.035
  mean healed time of the burn wounds: 17.23±0.53

## sEGF: Human recombinant EGF (ProspecBio) dissolved in 5% (w/v) polyethylene glycol, applied topically
[1]; soluble EGF 300 ng topically twice daily, over 11 days, db/db mice
  percentage wound closure / epithelial closure: did not significantly alter wound healing or epithelial closure; also recorded: did not promote epithelial closure
HaCaT cells [5]
  in vitro proliferation rate: increased cell proliferation
[4]; ELISA
  persistence of EGF in the wound bed: rapidly removed from wound surface
[4]; topical administration, wound surface, ELISA
  loss of recombinant human EGF from the surface of wounds after topical administration: ≤ 1 h
